In US20110224136A1, “INHIBITORS OF DIACYLGLYCEROL ACYLTRANSFERASE” (priority 2008, published 2011) one finds IC50 data, which are given here for 23 molecules.

Structures are written as SMILES.

In general, IC50 refers to the point on the concentration scale where inhibition reaches its midpoint.

The experiment has as its target T1, human DGAT1 enzyme (Homo sapiens, UniProt O75907).
T1 construct: made in house; host or cells: Sf9 insect cells (microsomes)
T1 sequence (O75907 1-488): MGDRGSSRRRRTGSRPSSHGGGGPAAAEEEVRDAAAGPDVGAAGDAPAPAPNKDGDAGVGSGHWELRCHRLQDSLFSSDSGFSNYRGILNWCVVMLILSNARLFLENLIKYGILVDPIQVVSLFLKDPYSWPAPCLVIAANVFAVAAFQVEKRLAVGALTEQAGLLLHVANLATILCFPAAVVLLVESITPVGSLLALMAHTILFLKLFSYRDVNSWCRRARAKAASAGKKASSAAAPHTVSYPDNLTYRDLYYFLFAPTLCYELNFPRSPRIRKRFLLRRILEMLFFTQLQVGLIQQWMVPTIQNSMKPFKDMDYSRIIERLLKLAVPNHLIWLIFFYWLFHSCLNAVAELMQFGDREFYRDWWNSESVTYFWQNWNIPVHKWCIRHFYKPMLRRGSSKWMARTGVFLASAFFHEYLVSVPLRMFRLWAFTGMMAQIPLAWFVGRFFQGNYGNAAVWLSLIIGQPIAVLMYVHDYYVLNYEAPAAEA
Nature of the experiment: in vitro DGAT1 inhibition assay (microsomes, [14C]-palmitoyl-CoA, scintillation proximity). Format: biochemical. The note with it: human DGAT1 expressed in Sf9 insect cell microsomes; 2 hours at room temperature; read-out: hDGAT IC50. As to the method: A useful assay to determine the DGAT inhibitory activity of the inventive compounds is described below:
The in vitro assay to identify DGAT1 inhibitors uses human DGAT1 enzyme expressed in Sf9 insect cells prepared as microsomes. The reaction is initiated by the addition of the combined substrates 1,2-dioleoyl-sn-glycerol and [^14C]-palmitoyl-CoA and incubated with test compounds and microsomal membranes for 2 hours at room temperature. The assay is stopped by adding 0.5 mg wheat germ agglutinin beads in assay buffer with 1% Brij-35 and 1% 3-cholamidopropyldimethyl-ammonio-1-propane sulfonate. Plates are sealed with TopSeal and incubated for 18 hours to allow the radioactive triglyceride product to come into proximity with the bead. Plates are read on a TopCount instrument.
Percent inhibition was calculated as the percent of (test compound inhibition minus non-specific binding) relative to (total binding minus non-specific binding). IC50 values were determined by curve fitting the data to a Sigmoidal dose-response in GraphPad Prism utilizing the following equation:
Y=A+(B−A)/(1+10̂((Log IC50−X))),
where A and B are the bottom and top of the curve (highest and lowest inhibition), respectively, and X is the logarithm of concentration.
Background: SPA uses beads or plates that emit light when radiolabelled molecules are held near them.
Take `CC1CCCN(c2nc(C(F)(F)F)c(C(=O)Nc3ccc(-c4ccc(C(=O)N5CCC(C(=O)O)CC5)cn4)cc3)o2)C1` (centres unmarked) [Compound 251, 1-(6-(4-(2-(3-methylpiperidin-1-yl)-4-(trifluoromethyl)oxazole-5-carboxamido)phenyl)nicotinoyl)piperidine-4-carboxylic acid]: the IC50 lay within 101 to 500 nM.

Turning to `Cc1cc(N2CCN(C(=O)Nc3ccccc3F)CC2)ncc1NC(=O)c1oc(N2CCCC(C)C2)nc1C(F)(F)F` (centres unmarked) [Compound 321, N-(6-(4-(2-fluorophenylcarbamoyl)piperazin-1-yl)-4-methylpyridin-3-yl)-2-(3-methylpiperidin-1-yl)-4-(trifluoromethyl)oxazole-5-carboxamide], the IC50 fell in the range of 101 to 500 nM.

Turning to `C[C@@H]1CN(c2ccc(NC(=O)c3oc(N4CCC(c5ccccc5)CC4)nc3C(F)(F)F)cn2)CCN1C(=O)Nc1ccccc1F` [Compound 266], the IC50 was 11 to 100 nM.

For `CC1CCCN(c2nc(C(F)(F)F)c(C(=O)Nc3ccc(N4CCN(C(=O)Nc5ccccc5C(=O)O)CC4)nc3)o2)C1` (centres unmarked) [Compound 300, 2-(4-(5-(2-(3-methylpiperidin-1-yl)-4-(trifluoromethyl)oxazole-5-carboxamido)pyridin-2-yl)piperazine-1-carboxamido)benzoic acid], the 50% inhibitory concentration (IC50) was 11 to 100 nM.

In the case of `Cc1ccccc1NC(=O)c1ccc(-c2ccc(NC(=O)c3oc(N4CCCC(C)C4)nc3C(F)(F)F)cc2)nc1` (centres unmarked) [Compound 242, 2-(3-methylpiperidin-1-yl)-N-(4-(5-(o-tolylcarbamoyl)pyridin-2-yl)phenyl)-4-(trifluoromethyl)oxazole-5-carboxamide], the IC50 lay within 11 to 100 nM.

As to `O=C(Nc1ccc(N2CCN(C(=O)Nc3ccccc3F)CC2)nc1)c1oc(N2CCC(c3cccc(F)c3)C2)nc1C(F)(F)F` (centres unmarked) [Compound 279, 2-(3-(3-fluorophenyl)pyrrolidin-1-yl)-N-(6-(4-(2-fluorophenylcarbamoyl)piperazin-1-yl)pyridin-3-yl)-4-(trifluoromethyl)oxazole-5-carboxamide], the IC50 fell in the range of 11 to 100 nM.

For the molecule `CN(CC1(c2ccccc2)CC1)c1nc(C(F)(F)F)c(C(=O)Nc2ccc(N3CCN(C(=O)Nc4ccccc4F)CC3)nc2)o1` [Compound 317, N-(6-(4-(2-fluorophenylcarbamoyl)piperazin-1-yl)pyridin-3-yl)-2-(methyl((1-phenylcyclopropyl)methyl)amino)-4-(trifluoromethyl)oxazole-5-carboxamide], the half-maximal inhibitory concentration (IC50) was 11 to 100 nM.

For `O=C(Nc1ccc(N2CCN(C(=O)Nc3ccccc3F)CC2)nc1)c1oc(NC2CCN(Cc3ccccc3)C2)nc1C(F)(F)F` (centres unmarked) [Compound 307, 2-(1-benzylpyrrolidin-3-ylamino)-N-(6-(4-(2-fluorophenylcarbamoyl)piperazin-1-yl)pyridin-3-yl)-4-(trifluoromethyl)oxazole-5-carboxamide], the IC50 lay in the range of 101 to 500 nM.

Consider `O=C(O)c1ccccc1NC(=O)N1CCN(c2ccc(NC(=O)c3oc(N4CCC(c5ccccc5)CC4)nc3C(F)(F)F)cn2)CC1` [Compound 292, 2-(4-(5-(2-(4-phenylpiperidin-1-yl)-4-(trifluoromethyl)oxazole-5-carboxamido)pyridin-2-yl)piperazine-1-carboxamido)benzoic acid], for which the IC50 was 11 to 100 nM.

For `O=C(Nc1ccc(N2CCN(C(=O)Nc3ccccc3F)CC2)nc1)c1sc(CSc2ccccc2)nc1C(F)(F)F` [Compound 253, N-(6-(4-(2-fluorophenylcarbamoyl)piperazin-1-yl)pyridin-3-yl)-2-(phenylthiomethyl)-4-(trifluoromethyl)thiazole-5-carboxamide], the IC50 lay in the range of 11 to 100 nM.

Take `CC1CCCN(c2nc(C(F)(F)F)c(C(=O)Nc3ccc(-c4ccc(C(=O)NCCC(=O)O)cc4)cc3)o2)C1` (centres unmarked) [Compound 328, 3-(4′-(2-(3-methylpiperidin-1-yl)-4-(trifluoromethyl)oxazole-5-carboxamido)biphenyl-4-ylcarboxamido)propanoic acid]: the IC50 was 101 to 500 nM.

As to `Cc1ccccc1NC(=O)c1ccc(-c2ccc(NC(=O)c3oc(N4CCCC(C)C4)nc3C(F)(F)F)nc2)cc1` (centres unmarked) [Compound 227, 2-(3-methylpiperidin-1-yl)-N-(5-(4-(o-tolylcarbamoyl)phenyl)pyridin-2-yl)-4-(trifluoromethyl)oxazole-5-carboxamide], the IC50 lay within 11 to 100 nM.

`O=C(Nc1ccc(N[C@H]2CCN(C(=O)Nc3ccccc3F)C2)nc1)c1sc(N2CCC(c3ccccc3)CC2)nc1C(F)(F)F` [Compound 259, (S)—N-(6-(1-(2-fluorophenylcarbamoyl)pyrrolidin-3-ylamino)pyridin-3-yl)-2-(4-phenylpiperidin-1-yl)-4-(trifluoromethyl)thiazole-5-carboxamide]: the IC50 is 101 to 500 nM.

Take `O=C(Nc1ccc(N2CCN(C(=O)Nc3ccccc3F)CC2)nc1)c1oc(N2CCC(F)(c3ccccc3)CC2)nc1C(F)(F)F` [Compound 325, N-(6-(4-(2-fluorophenylcarbamoyl)piperazin-1-yl)pyridin-3-yl)-2-(4-fluoro-4-phenylpiperidin-1-yl)-4-(trifluoromethyl)oxazole-5-carboxamide]: the half-maximal inhibitory concentration (IC50) is 101 to 500 nM.

As for `CC1CCCN(c2nc(C(F)(F)F)c(C(=O)Nc3ccc(N[C@H]4CCN(C(=O)c5ccccc5F)C4)nc3)o2)C1` (stereo partly drawn) [Compound 260, N-(6-((S)-1-(2-fluorobenzoyl)pyrrolidin-3-ylamino)pyridin-3-yl)-2-(3-methylpiperidin-1-yl)-4-(trifluoromethyl)oxazole-5-carboxamide], the IC50 lay within 101 to 500 nM.

On to `O=C(Nc1ccc(N2CCN(C(=O)Nc3ccccc3F)CC2)nc1)c1oc(N2CC[C@H](c3ccccc3)C2)nc1C(F)(F)F` [Compound 270, (R)—N-(6-(4-(2-fluorophenylcarbamoyl)piperazin-1-yl)pyridin-3-yl)-2-(3-phenylpyrrolidin-1-yl)-4-(trifluoromethyl)oxazole-5-carboxamide], for which the IC50 was in the range of 11 to 100 nM.

In the case of `O=C(Nc1ccc(N2CCN(C(=O)Nc3ccccc3F)CC2)nc1)c1sc(COc2ccccc2)nc1C(F)(F)F` [Compound 252, N-(6-(4-(2-fluorophenylcarbamoyl)piperazin-1-yl)pyridin-3-yl)-2-(phenoxymethyl)-4-(trifluoromethyl)thiazole-5-carboxamide], the IC50 is 101 to 500 nM.

Take `O=C(Nc1cnc(N2CCN(C(=O)Nc3ccccc3F)CC2)nc1)c1oc(N2CCC(c3ccccc3)CC2)nc1C(F)(F)F` [Compound 327, N-(2-(4-(2-fluorophenylcarbamoyl)piperazin-1-yl)pyrimidin-5-yl)-2-(4-phenylpiperidin-1-yl)-4-(trifluoromethyl)oxazole-5-carboxamide]: the IC50 is 101 to 500 nM.

With `O=C(Nc1ccc(N2CCN(C(=O)Nc3ccccc3F)CC2)nc1)c1oc(N2CCc3ccccc3C2)nc1C(F)(F)F` [Compound 335, 2-(3,4-dihydroisoquinolin-2(1H)-yl)-N-(6-(4-(2-fluorophenylcarbamoyl)-piperazin-1-yl)pyridin-3-yl)-4-(trifluoromethyl)oxazole-5-carboxamide], the IC50 lay in the range of 11 to 100 nM.

`O=C(Nc1ccc(N2CCN(C(=O)Nc3ccccc3F)CC2)nc1)c1oc(N2CCN(c3ccccc3F)CC2)nc1C(F)(F)F` [Compound 336, 2-(4-(2-fluorophenyl)piperazin-1-yl)-N-(6-(4-(2-fluorophenylcarbamoyl)-piperazin-1-yl)pyridin-3-yl)-4-(trifluoromethyl)oxazole-5-carboxamide]: the half-inhibitory concentration (IC50) lay in the range of 101 to 500 nM.

For `C[C@@H]1CN(C(=O)Nc2ccccc2F)CCN1c1ccc(NC(=O)c2oc(N3CCC(c4ccccc4)CC3)nc2C(F)(F)F)cn1` [Compound 310, (R)—N-(6-(4-(2-fluorophenylcarbamoyl)-2-methylpiperazin-1-yl)pyridin-3-yl)-2-(4-phenylpiperidin-1-yl)-4-(trifluoromethyl)oxazole-5-carboxamide], the IC50 was in the range of 101 to 500 nM.

Consider `O=C(O)C[C@H]1CC[C@H](c2ccc(NC(=O)c3oc(N4CCC(c5ccccc5)CC4)nc3C(F)(F)F)cc2)CC1` [Compound 216, 2-((1r,4r)-4-(4-(2-(4-phenylpiperidin-1-yl)-4-(trifluoromethyl)oxazole-5-carboxamido)phenyl)cyclohexyl)acetic acid], for which the IC50 lay in the range of 101 to 500 nM.

Turning to `CN(c1ncc(C(=O)Nc2ccc(N3CCN(C(=O)Nc4ccccc4F)CC3)nc2)c(C(F)(F)F)n1)C1CCCC1` [Compound 220, 2-(cyclopentyl(methyl)amino)-N-(6-(4-(2-fluorophenylcarbamoyl)piperazin-1-yl)pyridin-3-yl)-4-(trifluoromethyl)pyrimidine-5-carboxamide], the IC50 was in the range of 101 to 500 nM.
